Assay results from patent US9133183B2, “Imidazolidinones and analogs exhibiting anti-cancer and anti-proliferative activities” (Deciphera Pharmaceuticals, LLC, priority 2013, dated 2015).

Columns and labels:
osteoclast precursors = test: Osteoclast tartrate-resistant acid phosphatase assay; format: cell-based; details: 7-14 days, RANKL and M-CSF
Procedure: Osteoclast Tartrate-Resistant Acid Phosphatase Assay
A serial dilution of test compound was dispensed into a 384-well black clear bottom plate (Nalge Nunc International, Rochester, N.Y.). Compound was diluted by the addition of DMEM media supplemented with 10% characterized fetal bovine serum (Invitrogen, Carlsbad, Calif.). Diluted compound was transferred to a 384-well black clear bottom plate. Two-thousand five hundred osteoclast precursors (Lonza, Walkersville, Md.) were added per well in growth media containing Receptor Activator of Nuclear Factor Kappa-beta ligand (RANKL) and M-CSF (R&D Systems, Minneapolis, Minn.). Plates were incubated for 7-14 days at 37 degrees Celsius, 5% CO2, and 95% humidity to allow differentiation of osteoclast precursors. At the end of the incubation period, 10 μL of supernatant from each well was transferred to a clear 384-well plate. Tartrate-resistant acid phosphatase activity in the supernatant samples was determined using an acid phosphatase assay kit (Sigma, St. Louis, Mo.). Absorbance was measured at 550 nm using a plate reader. Data was analyzed using Prism software (Graphpad, San Diego, Calif.) to calculate IC50 values.

[1] = molecular target: unphosphorylated PDGFRβ kinase (uPDGFRβ, Seq. ID No. 3) (Homo sapiens (Human), UniProt P09619); test: Unphosphorylated PDGFRβ kinase assay (coupled pyruvate kinase/lactate dehydrogenase); format: biochemical; details: enzymatic assay, ATP 500 μM
Sequence of unphosphorylated PDGFRβ kinase (uPDGFRβ, Seq. ID No. 3) (P09619 557-1106): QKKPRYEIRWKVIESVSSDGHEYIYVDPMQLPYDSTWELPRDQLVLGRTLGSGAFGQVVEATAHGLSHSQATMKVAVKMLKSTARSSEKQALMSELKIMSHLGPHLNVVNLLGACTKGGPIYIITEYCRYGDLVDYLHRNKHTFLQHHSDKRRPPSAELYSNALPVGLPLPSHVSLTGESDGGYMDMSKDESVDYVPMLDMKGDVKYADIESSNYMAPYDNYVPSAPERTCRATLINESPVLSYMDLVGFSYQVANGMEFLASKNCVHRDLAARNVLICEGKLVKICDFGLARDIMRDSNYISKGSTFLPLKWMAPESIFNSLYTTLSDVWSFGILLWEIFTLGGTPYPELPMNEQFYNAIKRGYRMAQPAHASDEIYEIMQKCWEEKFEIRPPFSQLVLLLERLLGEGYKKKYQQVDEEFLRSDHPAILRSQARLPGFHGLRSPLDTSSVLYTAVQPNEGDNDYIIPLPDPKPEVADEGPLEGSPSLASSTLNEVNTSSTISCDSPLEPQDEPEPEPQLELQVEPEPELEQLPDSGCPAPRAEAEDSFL
Procedure: Unphosphorylated PDGFRβ (uPDGFRβ) Kinase (Seq. ID No. 3) Assay
Activity of unphosphorylated PDGFRβ kinase (uPDGFRβ, Seq. ID No. 3) was determined by following the production of ADP from the kinase reaction with ATP and poly E4Y as substrates through coupling with the pyruvate kinase/lactate dehydrogenase system (e.g., Schindler et al. Science (2000) 289: 1938-1942). In this assay, the oxidation of NADH (thus the decrease at A340 nm) was continuously monitored spectrophometrically. The reaction mixture (100 μL) contained PDGFRβ (DeCode, 15.7 nM), polyE4Y (2.5 mg/mL), MgCl2 (10 mM), pyruvate kinase (4 units), lactate dehydrogenase (0.7 units), phosphoenol pyruvate (1 mM) and NADH (0.28 mM) and ATP (500 μM) in a 90 mM Tris buffer containing 0.2% octyl-glucoside and 1% DMSO, at pH 7.5. The inhibition reaction was started by mixing serial diluted test compound with the above reaction mixture. The absorption at 340 nm was monitored continuously for 4 h at 30° C. on a Polarstar Optima or Synergy 2 plate reader. The reaction rate was calculated using the 1.5 to 2.5 h time frame. Percent inhibition was obtained by comparison of reaction rate with that of a control (i.e., with no test compound). IC50 values were calculated from a series of percent inhibition values determined at a range of inhibitor concentrations using software routines as implemented in the GraphPad Prism software package.
uPDGFRβ Kinase Sequence (Residues 557-1106) Used for Screening (Seq ID No. 3)

M-NFS-60 cells = test: M-NFS-60 cell proliferation assay (resazurin); format: cell-based; details: 67 h incubation
Procedure: M-NFS-60 cells (catalog #CRL-1838) were obtained from the American Type Culture Collection (ATCC, Manassas, Va.). Briefly, cells were grown in suspension in RPMI 1640 medium supplemented with 10% characterized fetal bovine serum (Invitrogen, Carlsbad, Calif.), 0.05 mM 2-mercaptoethanol, and 20 ng/mL mouse recombinant macrophage colony stimulating factor (M-CSF) at 37° C., 5% CO2, and 95% humidity. Cells were allowed to expand until reaching saturation at which point they were subcultured or harvested for assay use.
M-NFS-60 Cell Proliferation Assay
A serial dilution of test compound was dispensed into a 384-well black clear bottom plate (Corning, Corning, N.Y.). Two thousand five hundred cells were added per well in 50 μL complete growth medium. Plates were incubated for 67 h at 37° C., 5% CO2, and 95% humidity. At the end of the incubation period 10 μL of a 440 μM solution of resazurin (Sigma, St. Louis, Mo.) in PBS was added to each well and incubated for an additional 5 h at 37° C., 5% CO2, and 95% humidity. Plates were read on a Synergy2 reader (Biotek, Winooski, Vt.) using an excitation of 540 nm and an emission of 600 nm. IC50 values were calculated from a series of percent inhibition values determined at a range of inhibitor concentrations using software routines as implemented in the GraphPad Prism software package.

[2] = molecular target: unphosphorylated c-FMS kinase (uFMS, Seq. ID no. 1) (Homo sapiens (Human), UniProt P07333); test: uFMS kinase assay (ADP production coupled to pyruvate kinase/lactate dehydrogenase); format: biochemical; details: enzymatic assay, ATP 500 μM; read-out: uFMS
Sequence of unphosphorylated c-FMS kinase (uFMS, Seq. ID no. 1) (P07333 538-972): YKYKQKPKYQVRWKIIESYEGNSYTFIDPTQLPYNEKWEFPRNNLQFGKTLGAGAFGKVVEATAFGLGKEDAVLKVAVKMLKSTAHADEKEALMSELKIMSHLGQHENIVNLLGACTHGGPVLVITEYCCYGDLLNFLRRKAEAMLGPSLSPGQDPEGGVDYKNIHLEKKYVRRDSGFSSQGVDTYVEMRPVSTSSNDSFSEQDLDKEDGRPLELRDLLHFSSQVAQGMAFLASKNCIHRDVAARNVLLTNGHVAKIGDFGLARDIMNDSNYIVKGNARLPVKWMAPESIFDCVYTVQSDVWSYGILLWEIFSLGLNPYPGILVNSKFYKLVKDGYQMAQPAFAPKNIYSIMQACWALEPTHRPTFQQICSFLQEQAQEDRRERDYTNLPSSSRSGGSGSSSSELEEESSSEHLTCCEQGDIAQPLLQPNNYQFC
Procedure: uFMS kinase (Seq. ID No. 1) Assay
In this assay, the oxidation of NADH (thus the decrease at A340 nm) was continuously monitored spectrophometrically. The reaction mixture (100 μL) contained FMS (purchased from Millipore) (10 nM), polyE4Y (1 mg/mL), MgCl2 (10 mM), pyruvate kinase (4 units), lactate dehydrogenase (0.7 units), phosphoenol pyruvate (1 mM), NADH (0.28 mM) and ATP (500 μM) in 90 mM Tris buffer containing 0.2% octyl-glucoside and 1% DMSO, pH 7.5. The inhibition reaction was started by mixing serial diluted test compound with the above reaction mixture. The absorption at 340 nm was monitored continuously for 4 hours at 30° C. on Synergy 2 plate reader. The reaction rate was calculated using the 3 to 4 h time frame. Percent inhibition was obtained by comparison of reaction rate with that of a control (i.e., in the absence of test compound). IC50 values were calculated from a series of percent inhibition values determined at a range of inhibitor concentrations using software routines as implemented in the GraphPad Prism software package.
uFMS Kinase Sequence (Y538-End) Used for Screening (Seq. ID No. 1)

[3] = molecular target: unphosphorylated c-KIT kinase (uKIT, Seq. ID no. 2) (Homo sapiens (Human), UniProt P10721); test: uKit kinase assay (coupled pyruvate kinase/lactate dehydrogenase); format: biochemical; details: enzymatic assay, ATP 2000 μM
Sequence of unphosphorylated c-KIT kinase (uKIT, Seq. ID no. 2) (P10721 other isoform, or with tags, fused parts or gaps): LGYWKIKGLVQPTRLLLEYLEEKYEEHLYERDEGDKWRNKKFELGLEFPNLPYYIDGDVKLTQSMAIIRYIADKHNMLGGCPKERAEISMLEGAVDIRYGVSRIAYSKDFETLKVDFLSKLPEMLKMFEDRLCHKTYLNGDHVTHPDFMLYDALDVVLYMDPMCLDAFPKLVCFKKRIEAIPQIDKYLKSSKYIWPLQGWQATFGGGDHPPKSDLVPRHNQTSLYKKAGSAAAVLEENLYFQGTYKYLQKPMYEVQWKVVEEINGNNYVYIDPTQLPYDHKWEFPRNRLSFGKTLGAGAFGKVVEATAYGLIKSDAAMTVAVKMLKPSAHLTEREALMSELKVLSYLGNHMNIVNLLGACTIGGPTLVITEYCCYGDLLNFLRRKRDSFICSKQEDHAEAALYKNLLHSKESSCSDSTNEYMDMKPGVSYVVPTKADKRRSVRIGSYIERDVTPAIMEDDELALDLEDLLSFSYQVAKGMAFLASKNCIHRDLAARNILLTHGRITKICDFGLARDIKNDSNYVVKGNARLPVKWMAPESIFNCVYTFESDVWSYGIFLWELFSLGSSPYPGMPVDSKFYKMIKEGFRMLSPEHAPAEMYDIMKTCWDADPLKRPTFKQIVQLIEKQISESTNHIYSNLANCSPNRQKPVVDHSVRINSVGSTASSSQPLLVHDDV
Procedure: uKit Kinase (Seq. ID No. 2) Assay
Activity of unphosphorylated c-KIT kinase (uKIT, Seq. ID no. 2) was determined by following the production of ADP from the KIT kinase reaction with ATP and poly E4Y as substrates through coupling with the pyruvate kinase/lactate dehydrogenase system (e.g., Schindler et al. Science (2000) 289: 1938-1942). In this assay, the oxidation of NADH (thus the decrease at A340 nm) was continuously monitored spectrophometrically. The reaction mixture (100 μl) contained unphosphorylated KIT (12 nM), polyE4Y (1 mg/mL), MgCl2 (10 mM), pyruvate kinase (4 units), lactate dehydrogenase (0.7 units), phosphoenol pyruvate (1 mM), and NADH (0.28 mM) and ATP (2000 μM) in 90 mM Tris buffer containing 0.2% octyl-glucoside and 1% DMSO, pH 7.5. The inhibition reaction was started by mixing serial diluted test compound with the above reaction mixture. The absorption at 340 nm was monitored continuously for 4 hours at 30° C. on Synergy 2 plate reader (BioTech). Reaction rates around 3 to 4 h time frame were used to calculate % inhibitions, from which IC50 values were generated.
uKit with N-Terminal GST Fusion Used for Screening (Seq ID No. 2)

Row | SMILES | IC50 (osteoclast precursors; Osteoclast) [µM] | IC50 [1] [µM] | IC50 [2] [µM] | IC50 (osteoclast precursors) [µM] | IC50 [3] [µM] | IC50 (M-NFS-60 cells) [µM]
1 | COC(C)(C)CCN1CCN(C(=O)Nc2cc(Cl)c(Oc3ccnc(-c4cnn(C)c4)c3)cc2F)C1=O [Example 108, N-(5-chloro-2-fluoro-4-((2-(1-methyl-1H-pyrazol-4-yl)pyridin-4-yl)oxy)phenyl)-3-(3-methoxy-3-methylbutyl)-2-oxoimidazolidine-1-carboxamide] | 0.1 to 1 | > 1 | 0.01 to 0.1 |  |  | 0.1 to 1
2 | Cn1cc(-c2cc(Oc3ccc(NC(=O)N4CCN([C@@H]5CCOC5)C4=O)nc3)ccn2)cn1 [Example 27, (R)—N-(5-((2-(1-methyl-1H-pyrazol-4-yl)pyridin-4-yl)oxy)pyridin-2-yl)-2-oxo-3-(tetrahydrofuran-3-yl)imidazolidine-1-carboxamide] |  | > 1 | < 0.01 | < 0.01 |  | 0.01 to 0.1
3 | Cn1cc(-c2cc(Oc3cc(F)c(NC(=O)N4CCN(CCOC(F)(F)F)C4=O)cc3Cl)ccn2)cn1 [Example 106, N-(5-chloro-2-fluoro-4-((2-(1-methyl-1H-pyrazol-4-yl)pyridin-4-yl)oxy)phenyl)-2-oxo-3-(2-(trifluoromethoxy)ethyl)imidazolidine-1-carboxamide] | 0.1 to 1 | > 1 | 0.01 to 0.1 |  |  | > 1
4 | COCCCN1CCN(C(=O)Nc2cc(Cl)c(Oc3ccnc(-c4cnn(C)c4)c3)cc2F)C1=O [Example 103, N-(5-chloro-2-fluoro-4-((2-(1-methyl-1H-pyrazol-4-yl)pyridin-4-yl)oxy)phenyl)-3-(3-methoxypropyl)-2-oxoimidazolidine-1-carboxamide] | 0.1 to 1 | > 1 | 0.01 to 0.1 |  |  | 0.1 to 1
5 | Cc1ncc(-c2cc(Oc3ccc(NC(=O)N4CCN(C5CCCC5)C4=O)nc3C)ccn2)s1 [Example 75, 3-cyclopentyl-N-(6-methyl-5-((2-(2-methylthiazol-5-yl)pyridin-4-yl)oxy)pyridin-2-yl)-2-oxoimidazolidine-1-carboxamide] | 0.01 to 0.1 |  | < 0.01 |  | 0.1 to 1 | 0.01 to 0.1
6 | Cc1ncc(-c2cc(Oc3ccc(NC(=O)N4CCN(C)C4=O)nc3C)ccn2)s1 [Example 73, 3-methyl-N-(6-methyl-5-((2-(2-methylthiazol-5-yl)pyridin-4-yl)oxy)pyridin-2-yl)-2-oxoimidazolidine-1-carboxamide] | 0.1 to 1 |  | 0.1 to 1 |  | > 1 | > 1
7 | Cc1nc(NC(=O)N2CC(C)(C)N(C3CCCCC3)C2=O)ccc1Oc1ccnc(-c2cnn(C)c2)c1 [Example 32, 3-cyclohexyl-4,4-dimethyl-N-(6-methyl-5-((2-(1-methyl-1H-pyrazol-4-yl)pyridin-4-yl)oxy)pyridin-2-yl)-2-oxoimidazolidine-1-carboxamide] |  | > 1 | 0.1 to 1 |  | 0.1 to 1 | 
8 | Cc1cn(-c2cc(Oc3ccc(NC(=O)N4CCN(C5CCOCC5)C4=O)nc3)ccn2)cn1 [Example 77, N-(5-((2-(4-methyl-11H-imidazol-1-yl)pyridin-4-yl)oxy)pyridin-2-yl)-2-oxo-3-(tetrahydro-2H-pyran-4-yl)imidazolidine-1-carboxamide] | 0.1 to 1 |  | 0.01 to 0.1 |  | 0.01 to 0.1 | 0.1 to 1

Further lines, with some results ahead:

Row | IC50 (osteoclast precursors; Osteoclast) [µM] | IC50 [1] [µM] | IC50 [2] [µM] | IC50 (osteoclast precursors) [µM] | IC50 [3] [µM] | SMILES | IC50 (M-NFS-60 cells) [µM]
9 | < 0.01 | > 1 | < 0.01 |  |  | Cn1cc(-c2cc(Oc3cc(F)c(NC(=O)N4CCN(C5CCCC5)C4=O)cc3Cl)ccn2)cn1 [Example 111, N-(5-chloro-2-fluoro-4-((2-(1-methyl-1H-pyrazol-4-yl)pyridin-4-yl)oxy)phenyl)-3-cyclopentyl-2-oxoimidazolidine-1-carboxamide] | 0.01 to 0.1
10 | 0.1 to 1 | > 1 | 0.1 to 1 |  |  | Cn1cc(-c2cc(Oc3cc(F)c(NC(=O)N4CCN(C5COC5)C4=O)cc3Cl)ccn2)cn1 [Example 104, N-(5-chloro-2-fluoro-4-((2-(1-methyl-1H-pyrazol-4-yl)pyridin-4-yl)oxy)phenyl)-3-(oxetan-3-yl)-2-oxoimidazolidine-1-carboxamide] | > 1
11 | 0.01 to 0.1 | > 1 | 0.01 to 0.1 |  |  | COC[C@H](C)N1CCN(C(=O)Nc2cc(Cl)c(Oc3ccnc(-c4cnn(C)c4)c3)cc2F)C1=O [Example 105, (S)—N-(5-chloro-2-fluoro-4-((2-(1-methyl-1H-pyrazol-4-yl)pyridin-4-yl)oxy)phenyl)-3-(1-methoxypropan-2-yl)-2-oxoimidazolidine-1-carboxamide] | 0.1 to 1
12 | 0.01 to 0.1 | 0.1 to 1 | < 0.01 |  |  | Cn1cc(-c2cc(Oc3cc(F)c(NC(=O)N4CCN(C5CCCCC5)C4=O)cc3Cl)ccn2)cn1 [Example 107, N-(5-chloro-2-fluoro-4-((2-(1-methyl-1H-pyrazol-4-yl)pyridin-4-yl)oxy)phenyl)-3-cyclohexyl-2-oxoimidazolidine-1-carboxamide] | 0.01 to 0.1
13 |  | > 1 | < 0.01 |  |  | Cn1cc(-c2cc(Oc3cc(F)c(NC(=O)N4CCN(C5CCC(F)(F)CC5)C4=O)cc3Cl)ccn2)cn1 [Example 110, N-(5-chloro-2-fluoro-4-((2-(1-methyl-1H-pyrazol-4-yl)pyridin-4-yl)oxy)phenyl)-3-(4,4-difluorocyclohexyl)-2-oxoimidazolidine-1-carboxamide] | 0.01 to 0.1
